Tests used:
[1] = Cytotoxicity against human NCI-H460 cells incubated for 72 hrs by CCK-8 assay
[2] = in vitro; conditions: human, NCI-H460 cells
Description: Selectivity index, ratio of CC50 for cytotoxicity against human NCI-H460 cells to EC50 for antiviral activity against HCoV-OC43 VR-1558 infected in human NCI-H460 cells

[3] = system: Human coronavirus OC43; test: microbe, parasite or virus in culture; conditions: Betacoronavirus 1, VR-1558, NCI-H460, 72 h
Description: Antiviral activity against HCoV-OC43 VR-1558 infected in human NCI-H460 cells assessed as inhibition of viral growth incubated for 72 hrs by CCK-8 assay

[4] = molecular target: Replicase polyprotein 1ab (Severe acute respiratory syndrome coronavirus 2, UniProt P0DTD1)
Description: Binding affinity to CM5 sensor chip immobilized SARS-CoV-2 3CL protease assessed as dissociation constant by SPR analysis

[5] = system: Human coronavirus OC43; test: microbe, parasite or virus in culture; conditions: Betacoronavirus 1, A549, 96 h
Description: Antiviral activity against HCoV-OC43 infected in human A549 cells assessed as inhibition of viral growth incubated for 4 days

[6] = system: SARS-CoV-2; test: microbe, parasite or virus in culture; conditions: Severe acute respiratory syndrome coronavirus 2, IC19/2020, Vero, 48 h
Description: Antiviral activity against SARS-CoV-2 IC19/2020 infected in Vero cells assessed as inhibition of viral growth incubated for 48 hrs by plaque assay

SMILES | CC50 at 72 h [1] [µM] | selectivity ratio [2] | EC50 [3] [µM] | Kd [4] [µM] | EC50 [5] [µM] | EC50 [6] [µM]
CN1CCN(Cc2ccc(NC(=O)c3ccc(OCCCCl)c(S(=O)(=O)O)c3)cc2C(F)(F)F)CC1 | > 200 | 7 | 36.8 | – | – | –
CN1CCN(Cc2ccc(NC(=O)c3ccc(OO)c([N+](=O)[O-])c3)cc2C(F)(F)F)CC1 | > 200 | > 8 | 26.2 | – | – | –
CN(C)C1CC(Oc2ccc(NC(=O)c3ccc(OCCCl)c([N+](=O)[O-])c3)cc2C(F)(F)F)C1 (stereo not given) | 9.94 | 9.1 | 1.09 | – | – | –
CN(C)C1CN(Cc2ccc(NC(=O)c3ccc(OCCF)c([N+](=O)[O-])c3)cc2C(F)(F)F)C1 | 75.2 | 25.7 | 2.93 | – | – | –
CN(C)C1CN(Cc2ccc(NC(=O)c3ccc(OCC4CC4)c([N+](=O)[O-])c3)cc2C(F)(F)F)C1 | 14.6 | 14.5 | 1.01 | – | – | –
COc1ccc(C(=O)Nc2ccc(CN3CCN(C)CC3)c(C(F)(F)F)c2)cc1S(N)(=O)=O | 123 | 6.17 | 19.9 | – | – | –
CN(C)C1CC(Oc2ccc(NC(=O)c3ccc(OCC(F)F)c([N+](=O)[O-])c3)cc2C(F)(F)F)C1 (stereo not given) | 34.3 | 13 | 2.58 | – | – | –
Cc1ccc(NC(=O)c2ccc(OCCCCl)c([N+](=O)[O-])c2)cc1C(F)(F)F | 82.4 | 21 | 3.83 | – | – | –
CN(C)C1CC(Oc2ccc(NC(=O)c3ccc(OCCF)c([N+](=O)[O-])c3)cc2C(F)(F)F)C1 (stereo not given) | 27.1 | 15 | 1.79 | – | – | –
COc1ccc(C(=O)Nc2ccc(CN3CC(N(C)C)C3)c(C(F)(F)F)c2)cc1[N+](=O)[O-] | > 200 | > 17 | 12.1 | – | – | –
CCC(=O)Nc1cc(C(=O)Nc2ccc(CN3CC(N(C)C)C3)c(C(F)(F)F)c2)ccc1OCCCCl | 96.2 | 4.3 | 22.2 | – | – | –
CN(C)C1CC(Oc2ccc(NC(=O)c3ccc(OCc4cc(C(F)(F)F)cc(C(F)(F)F)c4)c([N+](=O)[O-])c3)cc2C(F)(F)F)C1 (stereo not given) | 17 | 1 | 11.7 | – | – | –
CC1CC(C)CN(CCCNC(=O)C2CN(Cc3ccc(NC(=O)c4ccc(OCCCCl)c([N+](=O)[O-])c4)cc3C(F)(F)F)C2)C1 (stereo not given) | 14.9 | 4.7 | 3.18 | – | – | –
COc1ccc(C(=O)Nc2ccc(OC3CC(N(C)C)C3)cc2C(F)(F)F)cc1[N+](=O)[O-] (stereo not given) | 99.5 | 3 | 28.6 | – | – | –
C=CCOc1ccc(C(=O)Nc2ccc(CN3CC(N(C)C)C3)c(C(F)(F)F)c2)cc1[N+](=O)[O-] | 28.1 | 4 | 7.61 | – | – | –
CN1CCN(Cc2ccc(NC(=O)c3ccc(OCCCF)c([N+](=O)[O-])c3)cc2C(F)(F)F)CC1 | 17.8 | 7 | 2.45 | – | – | –
CCOc1ccc(C(=O)Nc2ccc(CN3CC(N(C)C)C3)c(C(F)(F)F)c2)cc1[N+](=O)[O-] | > 200 | > 108 | 1.85 | 17.1 | – | –
CN(C)C1CN(Cc2ccc(NC(=O)c3ccc(OCC45CC6CC(CC(C6)C4)C5)c([N+](=O)[O-])c3)cc2C(F)(F)F)C1 | 4.63 | < 1.7 | > 3.13 | – | – | –
COc1ccc(C(=O)Nc2ccc(CN3CCN(C)CC3)c(C(F)(F)F)c2)cc1[N+](=O)[O-] | 30.4 | 10.8 | 2.81 | – | – | –
CCC(=O)Nc1cc(C(=O)Nc2ccc(CN3CCN(C)CC3)nc2)ccc1OCCCCl | 82.7 | 2 | 41.5 | – | – | –
CN(C)C1CC(Oc2ccc(NC(=O)c3ccc(OCC4CC4)c([N+](=O)[O-])c3)cc2C(F)(F)F)C1 (stereo not given) | 8.51 | 7 | 1.24 | – | – | –
CCOc1ccc(C(=O)Nc2ccc(OC3CC(N(C)C)C3)c(C(F)(F)F)c2)cc1[N+](=O)[O-] (stereo not given) | 55.4 | 17.9 | 3.09 | – | – | –
CN(C)C1CC(Oc2ccc(NC(=O)c3ccc(OCC45CC6CC(CC(C6)C4)C5)c([N+](=O)[O-])c3)cc2C(F)(F)F)C1 (stereo not given) | 2.51 | < 1.7 | > 1.56 | – | – | –
Cc1ccc(NC(=O)c2ccc(CN3CCN(C)CC3)cc2)cc1Nc1nc(-c2cccnc2)cs1 [MASITINIB] | – | – | – | – | 2.1 | –
CC(C)C(=O)OC[C@H]1O[C@@H](n2ccc(NO)nc2=O)[C@H](O)[C@@H]1O [MOLNUPIRAVIR] | 18.3 | 102 | 0.18 | – | – | –
O=C(Nc1ccc([N+](=O)[O-])cc1Cl)c1cc(Cl)ccc1O [NICLOSAMIDE] | – | – | – | – | – | 0.4
